The results in this text go back to article PMC4976201, “Total synthesis of teixobactin” (Nature Communications, 2016).

The test system of this assay is Gram-positive bacterial pathogens. The assay is described as follows: Antibacterial activity on Gram-positive bacteria, stated in words. Format: cell-based. The following applies: MIC on various Gram-positive bacteria strains. The text has this:
Synthetic teixobactin and its analogues were subjected to the assessment of their antimicrobial activities by determining their minimal inhibitory concentration on various Gram-positive bacteria strains including methicillin-susceptible S. aureus strain ATCC29213 and methicillin-resistant S. aureus clinical isolates. […] In this effort, the original stereo-configuration of the amino-acid residue should be thoroughly scrutinized. From our study, it is encouraging to find that Orn-containing teixobactin analogues maintained modest antibacterial activity. Since Orn is readily available as compared with L-allo-End and the synthesis of the Orn-containing cyclic depsipeptide (7–11) gave the best yield among all the analogue syntheses, which is amenable to a large-scale synthesis. Through the above-developed convergent synthetic strategy, various linear hexapeptide (1–6), such as 11, can be readily prepared and ligated to the Orn-containing the cyclic depsi-pentapeptide (7–11) to investigate the contribution of each amino acid in the linear peptide fragment towards the antibacterial activity, which will lead to the optimal structure for the development of teixobactin with improved properties.

`CC[C@@H](C)[C@@H](NC(=O)[C@@H](CCC(N)=O)NC(=O)[C@H](CO)NC(=O)[C@@H](NC(=O)[C@@H](Cc1ccccc1)NC)[C@@H](C)CC)C(=O)N[C@H](C(=O)N[C@@H](CO)C(=O)N[C@H]1C(=O)N[C@@H](C)C(=O)N[C@@H](CCCNC(=N)N)C(=O)N[C@@H]([C@@H](C)CC)C(=O)O[C@H]1C)[C@@H](C)CC` [compound 14]: the “antibacterial activity compared with natural teixobactin” value is “reduced antibacterial activities”.

`CC[C@H](C)[C@H](NC(=O)[C@@H](Cc1ccccc1)NC)C(=O)N[C@@H](CO)C(=O)N[C@H](CCC(N)=O)C(=O)N[C@@H](C(=O)N[C@H](C(=O)N[C@@H](CO)C(=O)N[C@H]1C(=O)N[C@@H](C)C(=O)N[C@@H](CCCN)C(=O)N[C@@H]([C@@H](C)CC)C(=O)O[C@H]1C)[C@@H](C)CC)[C@@H](C)CC` [compound 16]: the “antibacterial activity compared with natural teixobactin” value is given as “reduced antibacterial activities”.
